Results reported in article PMC13061574 (Nature structural & molecular biology, 2024).

Columns and labels:
THIK1 (K2P13.1) [1] = biological target: T1, THIK1 (K2P13.1) (Homo sapiens, UniProt Q9HB14, R92A); assay: TEVC electrophysiology, activation; assay type: cell-based
T1 sequence (Q9HB14 1-408 R92A): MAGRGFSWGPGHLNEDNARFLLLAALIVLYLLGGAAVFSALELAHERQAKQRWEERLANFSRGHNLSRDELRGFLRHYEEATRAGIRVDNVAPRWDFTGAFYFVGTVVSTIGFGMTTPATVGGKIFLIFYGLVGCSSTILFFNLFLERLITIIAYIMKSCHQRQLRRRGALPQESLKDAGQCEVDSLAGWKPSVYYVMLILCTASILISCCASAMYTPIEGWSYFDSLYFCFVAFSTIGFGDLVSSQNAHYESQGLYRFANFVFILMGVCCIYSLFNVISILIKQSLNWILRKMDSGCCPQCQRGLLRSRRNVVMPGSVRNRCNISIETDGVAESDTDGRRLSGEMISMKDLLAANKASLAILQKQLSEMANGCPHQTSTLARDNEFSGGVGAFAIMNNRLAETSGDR

THIK1 (K2P13.1) [2] = biological target: T1, THIK1 (K2P13.1); assay: TEVC electrophysiology dose–response, activation; assay type: cell-based
cryo-EM structure = biological target: the molecule itself; assay: cryo-EM structure

CC/C=C\C/C=C\C/C=C\C/C=C\C/C=C\CCCC(=O)O [EPA, eicosapentanoic acid]
TEVC electrophysiology, activation (THIK1 (K2P13.1) [1]): α-LNL, eicosapentanoic acid (EPA), dihomo-γ-EIC (DGLA) and oleic acid (OA) also activated R92A

CCCCC/C=C\C/C=C\CCCCCCCC(=O)O [EIC, linoleic acid]
EC50 (THIK1 (K2P13.1) [2]): 700 nM

CCCCCCCC/C=C\CCCCCCCC(=O)O [OA, oleic acid]
TEVC electrophysiology, activation (THIK1 (K2P13.1) [1]): α-LNL, eicosapentanoic acid (EPA), dihomo-γ-EIC (DGLA) and oleic acid (OA) also activated R92A

B1: THIK1EM (human K2P13.1 (THIK1) residues 1-350, N59Q, N65Q) (domain or fragment, UniProt Q9HB14 1-350, looked up)
chain: MAGRGFSWGPGHLNEDNARFLLLAALIVLYLLGGAAVFSALELAHERQAKQRWEERLAQFSRGHQLSRDELRGFLRHYEEATRAGIRVDNVRPRWDFTGAFYFVGTVVSTIGFGMTTPATVGGKIFLIFYGLVGCSSTILFFNLFLERLITIIAYIMKSCHQRQLRRRGALPQESLKDAGQCEVDSLAGWKPSVYYVMLILCTASILISCCASAMYTPIEGWSYFDSLYFCFVAFSTIGFGDLVSSQNAHYESQGLYRFANFVFILMGVCCIYSLFNVISILIKQSLNWILRKMDSGCCPQCQRGLLRSRRNVVMPGSVRNRCNISIETDGVAESDTDGRRLSGEMISMK
stoichiometry N (cryo-EM structure): 2

B2: THIK1EM-S136P (domain or fragment, human, UniProt Q9HB14 1-350, looked up)
chain: MAGRGFSWGPGHLNEDNARFLLLAALIVLYLLGGAAVFSALELAHERQAKQRWEERLAQFSRGHQLSRDELRGFLRHYEEATRAGIRVDNVRPRWDFTGAFYFVGTVVSTIGFGMTTPATVGGKIFLIFYGLVGCPSTILFFNLFLERLITIIAYIMKSCHQRQLRRRGALPQESLKDAGQCEVDSLAGWKPSVYYVMLILCTASILISCCASAMYTPIEGWSYFDSLYFCFVAFSTIGFGDLVSSQNAHYESQGLYRFANFVFILMGVCCIYSLFNVISILIKQSLNWILRKMDSGCCPQCQRGLLRSRRNVVMPGSVRNRCNISIETDGVAESDTDGRRLSGEMISMK
binding result (cryo-EM structure): binds
